Results published in patent publication US20100016366A1, “Novel Compounds Active as Muscarinic Receptor Antagonists” (priority 2008, published 2010).
pKi: −log10 of the molar value.

What was measured:
[1] = biological target: T1, human muscarinic M3 receptor (Homo sapiens, UniProt P20309); test: Cell based potency assessment, hM3 β-lactamase assay (CHO cell β-lactamase); details: CHO cells recombinantly expressing human M3, NFAT-β-lactamase reporter; inhibition of 80 nM carbamyl choline signal, 4 h; IC50 converted by Cheng-Prusoff
T1 construct: expressed in transfected cells; host or cells: CHO (CHO-K1) cells
Experimental: Cell BASED POTENCY ASSESSMENT at the Human Recombinant M3 Muscarinic Receptor
M3 potency was determined in CHO-K1 cells transfected with the NFAT-Betalactamase gene. CHO (Chinese Hamster Ovary) cells recombinantly expressing the human muscarinic M3 receptor were transfected with the NFAT_β-Lac_Zeo plasmid. Cells were grown in DMEM with Glutamax-1, supplemented with 25 mM HEPES (Life Technologies 32430-027), containing 10% FCS (Foetal Calf Serum; Sigma F-7524), […] Sodium pyruvate (Sigma S-8636), NEAA (non-Essential Amino Acids; Invitrogen 11140-035) and 200 μg/ml Zeocin (Invitrogen R250-01).
hM3 β-Lactamase Assay Protocol
Cells were harvested for assay when they reached 80-90% confluency using enzyme free cell Dissociation Solution (Life technologies 13151-014) incubated with the cells for 5 min at 37° C. in an atmosphere containing 5% CO2. Detached cells were collected in warmed growth media and centrifuged at 2000 rpm for 10 min, washed in PBS (Phosphate Buffered Saline; Life Technologies 14190-094) and centrifuged again as just described. The cells were re-suspended at 2×10^5 cells/ml in growth medium (composition as described above). 20 μl of this cell suspension was added to each well of a 384 well black clear bottomed plate (Greiner Bio One 781091-PFI). The assay buffer used was PBS supplemented with 0.05% Pluronic F-127 (Sigma 9003-11-6) and 2.5% DMSO. Muscarinic M3 receptor signalling was stimulated using 80 nM carbamyl choline (Aldrich N240-9) incubated with the cells for 4 h at 37° C./5% CO2 and monitored at the end of the incubation period using a Tecan SpectraFluor+plate reader (λ−excitation 405 nm, emission 450 nm and 503 nm). M3 receptor antagonists under test were added to the assay at the beginning of the 4 h incubation period and compound activity measured as the concentration dependent inhibition of the carbamyl choline induced signal. Inhibition curves were plotted and IC50 values generated using a 4-parameter sigmoid fit and converted to Ki values using the Cheng-Prusoff correction and the KD value for carbamyl choline in the assay.

[2] = biological target: T1, human muscarinic M3 receptor; test: hM3 competition binding assay (3H-NMS, CHO cell membranes); details: CHO cell membranes expressing human M3; 3H-NMS at 5×KD, 24 hr at RT; IC50 corrected by Cheng-Prussoff
Experimental: Binding Affinity Assessment at the Human Recombinant M3 Muscarinic Receptor
Cell Pellets from CHO (Chinese Hamster Ovary) cells recombinantly expressing the human muscarinic M3 receptor were homogenised in 20 mM HEPES (pH7.4) and centrifuged at 48000×g for 20 min at 4° C. The pellet was re-suspended in buffer and the homogenisation and centrifugation steps repeated. The resulting pellet was re-suspended in 1 ml buffer per 1 ml original packed cell volume and the homogenisation step repeated. Protein estimation was carried out on the suspension and 1 ml aliquots of ˜1 mg/ml frozen at −80° C.
hM3 Competition Binding Assay Protocol
Membranes (5 µg/well) were incubated with ^3H-NMS (at a concentration 5×KD) plus/minus test compound for 24 hr at RT (room temperature) in a 1 ml polystyrene 96-well deep well block. The final assay volume was 200 µl, comprising of: 20 µl plus/minus test compound; 20 µl ^3H-NMS (Perkin Elmer NEN 636) and 160 µl membrane solution. Total Binding was defined with 0.1% DMSO; Non-Specific Binding was defined with 1 µM Atropine. Assay buffer was 20 mM Hepes (pH 7.4).
Once all assay components were added, plates were covered and incubated at room temperature for 24 hrs with shaking. The assay was terminated by rapidly filtering through GF/B Unifilter plates pre-soaked with 0.5% polyethylenimine, using a Packard filtermate harvester, the filter plate was then washed with 3×1 ml 4° C. assay buffer. The filter plates were dried at 45° C. for 1 hour. The bottoms of the filter plates were sealed and 50 µl/well of Microscint ‘0’ added, the top of the plates were sealed with a Topseal. Following 90 mins, the plates were read on an NXT Topcount (1 minute read time per well).
The resulting data was expressed as a percentage of the specific binding (Specific binding=Total binding−Non-Specific Binding). % specific binding versus test compound concentration was plotted to determine an IC50 from a sigmoid curve using an in-house data analysis programme. IC50 values corrected to Ki values by applying the Cheng-Prussoff equation: […]
where IC50 is the concentration of unlabelled drug which inhibits by 50% the specific radioligand binding. [L] is the free radioligand concentrations and KD and Ki are the equilibrium dissociation constants of the radioligand and unlabelled drug respectively.

T1 sequence (P20309 whole entry): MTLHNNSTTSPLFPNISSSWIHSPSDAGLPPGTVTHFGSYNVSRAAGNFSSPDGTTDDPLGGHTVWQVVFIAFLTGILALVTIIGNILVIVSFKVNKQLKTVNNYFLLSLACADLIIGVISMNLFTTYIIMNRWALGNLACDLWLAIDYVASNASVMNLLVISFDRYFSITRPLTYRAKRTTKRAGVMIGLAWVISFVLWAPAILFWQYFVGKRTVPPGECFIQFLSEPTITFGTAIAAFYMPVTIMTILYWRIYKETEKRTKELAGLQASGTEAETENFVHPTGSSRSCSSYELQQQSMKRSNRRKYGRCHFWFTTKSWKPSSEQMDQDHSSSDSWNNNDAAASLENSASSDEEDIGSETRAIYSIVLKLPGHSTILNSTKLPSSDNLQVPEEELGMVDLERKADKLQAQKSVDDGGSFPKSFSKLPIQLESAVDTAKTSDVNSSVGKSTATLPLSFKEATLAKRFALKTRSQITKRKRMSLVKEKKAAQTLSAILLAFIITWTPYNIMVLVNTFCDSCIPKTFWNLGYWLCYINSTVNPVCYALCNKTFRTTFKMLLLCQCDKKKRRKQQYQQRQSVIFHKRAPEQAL

pKi [1]	pKi [2]	Compound
10.16	8.80	O=C(Nc1ccccc1-c1ccccc1)OC1CCN(CCCCCCCCCNC(=O)c2ccc(O)c(Cl)c2)CC1 [Example 1, Biphenyl-2-yl-carbamic acid 1-[9-(3-chloro-4-hydroxy-benzoylamino)-nonyl]-piperidin-4-yl ester]
9.08	8.98	O=C(Nc1ccccc1-c1ccccc1)OC1CCN(CCCCCCCCCNCc2cccc(O)c2F)CC1 [Example 2, Biphenyl-2-yl-carbamic acid 1-[9-(2-fluoro-3-hydroxy-benzylamino)-nonyl]-piperidin-4-yl ester]
9.11	8.63	O=C(Nc1ccccc1-c1ccccc1)OC1CCN(CCCCCCCCCNCc2cc(F)cc(Cl)c2O)CC1 [Example 3, Biphenyl-2-yl-carbamic acid 1-[9-(3-chloro-5-fluoro-2-hydroxy-benzylamino)-nonyl]-piperidin-4-yl ester]
10.38	8.92	O=C(Cc1ccc(O)c(Cl)c1)NCCCCCCCCCN1CCC(OC(=O)Nc2ccccc2-c2ccccc2)CC1 [Example 4, Biphenyl-2-yl-carbamic acid 1-{9-[2-(3-chloro-4-hydroxy-phenyl)-acetylamino]-nonyl}-piperidin-4-yl ester]
9.05	9.28	O=C(Nc1ccccc1-c1ccccc1)OC1CCN(CCCCCCCCCNCc2cccc(O)c2Cl)CC1 [Example 5, Biphenyl-2-yl-carbamic acid 1-[9-(2-chloro-3-hydroxy-benzylamino)-nonyl]-piperidin-4-yl ester]
9.65	9.11	O=C(Nc1ccccc1-c1ccccc1)OC1CCN(CCCCCCCCCNC(=O)c2ccc(O)c(F)c2)CC1 [Example 6, Biphenyl-2-yl-carbamic acid 1-[9-(3-fluoro-4-hydroxy-benzoylamino)-nonyl]-piperidin-4-yl ester]
8.87	9.00	O=C(Nc1ccccc1-c1ccccc1)OC1CCN(CCCCCCCCCNC(=O)c2ccc(F)c(O)c2)CC1 [Example 7, Biphenyl-2-yl-carbamic acid 1-[9-(4-fluoro-3-hydroxy-benzoylamino)-nonyl]-piperidin-4-yl ester]
8.57	8.32	O=C(Nc1ccccc1-c1ccccc1)OC1CCN(CCCCCCCCCNC(=O)c2cccc(F)c2O)CC1 [Example 8, Biphenyl-2-yl-carbamic acid 1-[9-(3-fluoro-2-hydroxy-benzoylamino)-nonyl]-piperidin-4-yl ester]
9.10	8.97	O=C(Cc1ccc(O)c(F)c1)NCCCCCCCCCN1CCC(OC(=O)Nc2ccccc2-c2ccccc2)CC1 [Example 10, Biphenyl-2-yl-carbamic acid 1-{9-[2-(3-fluoro-4-hydroxy-phenyl)-acetylamino]-nonyl}-piperidin-4-yl ester]
8.09	8.65	O=C(Nc1ccccc1-c1ccccc1)OC1CCN(CCCCCCCCCNC(=O)c2cccc(Cl)c2O)CC1 [Example 11, Biphenyl-2-yl-carbamic acid 1-[9-(3-chloro-2-hydroxy-benzoylamino)-nonyl]-piperidin-4-yl ester]
9.40	8.63	CN(CCCCCCCCCN1CCC(OC(=O)Nc2ccccc2-c2ccccc2)CC1)C(=O)Cc1ccc(O)c(Cl)c1 [Example 15, Biphenyl-2-yl-carbamic acid 1-(9-{[2-(3-chloro-4-hydroxy-phenyl)-acetyl]-methyl-amino}-nonyl)-piperidin-4-yl ester]
9.41	8.53	CN(CCCCCCCCCN1CCC(OC(=O)Nc2ccccc2-c2ccccc2)CC1)C(=O)c1ccc(F)c(O)c1 [Example 16, Biphenyl-2-yl-carbamic acid 1-{9-[(4-fluoro-3-hydroxy-benzoyl)-methyl-amino]-nonyl}-piperidin-4-yl ester]
9.60	8.67	CN(CCCCCCCCCN1CCC(OC(=O)Nc2ccccc2-c2ccccc2)CC1)C(=O)c1ccc(O)c(Cl)c1 [Example 17, Biphenyl-2-yl-carbamic acid 1-{9-[(3-chloro-4-hydroxy-benzoyl)-methyl-amino]-nonyl}-piperidin-4-yl ester]
9.45	8.64	CN(CCCCCCCCCN1CCC(OC(=O)Nc2ccccc2-c2ccccc2)CC1)C(=O)Cc1ccc(O)c(F)c1 [Example 18, Biphenyl-2-yl-carbamic acid 1-(9-{[2-(3-fluoro-4-hydroxy-phenyl)-acetyl]-methyl-amino}-nonyl)-piperidin-4-yl ester]
8.88	8.84	O=C(Nc1ccccc1-c1ccccc1)OC1CCN(CCCCCCCCCNC(=O)c2ccc(Cl)c(O)c2)CC1 [Example 19, Biphenyl-2-yl-carbamic acid 1-[9-(4-chloro-3-hydroxy-benzoylamino)-nonyl]-piperidin-4-yl ester]
9.04	8.71	O=C(Nc1ccccc1-c1ccccc1)OC1CCN(CCCCCCCCCNC(=O)c2ccc(O)cc2F)CC1 [Example 20, Biphenyl-2-yl-carbamic acid 1-[9-(2-fluoro-4-hydroxy-benzoylamino)-nonyl]-piperidin-4-yl ester]
9.17	8.90	O=C(Nc1ccccc1-c1ccccc1)OC1CCN(CCCCCCCCCNC(=O)c2ccc(O)cc2Cl)CC1 [Example 21, Biphenyl-2-yl-carbamic acid 1-[9-(2-chloro-4-hydroxy-benzoylamino)-nonyl]-piperidin-4-yl ester]
9.83	9.06	O=C(Nc1ccccc1-c1ccccc1)OC1CCN(CCCCCCCCCNCc2cc(Cl)c(O)c(Cl)c2)CC1 [Example 22, Biphenyl-2-yl-carbamic acid 1-[9-(3,5-dichloro-4-hydroxy-benzylamino)-nonyl]-piperidin-4-yl ester]
9.56	8.62	O=C(Nc1ccccc1-c1ccccc1)OC1CCN(CCCCCCCCCNC(=O)c2ccc(O)c(F)c2F)CC1 [Example 23, Biphenyl-2-yl-carbamic acid 1-[9-(2,3-difluoro-4-hydroxy-benzoylamino)-nonyl]-piperidin-4-yl ester]
9.07	8.36	O=C(Nc1ccccc1-c1ccccc1)OC1CCN(CCCCCCCCCNC(=O)c2cc(Cl)c(O)c(Cl)c2)CC1 [Example 25, Biphenyl-2-yl-carbamic acid 1-[9-(4-hydroxy-3,5-dichloro-benzoylamino)-nonyl]-piperidin-4-yl ester]
8.35	–	O=C(Nc1ccccc1-c1ccccc1)OC1CCN(CCCCCCCCCNC(=O)c2ccc(F)cc2O)CC1 [Example 26, Biphenyl-2-yl-carbamic acid 1-[9-(2-hydroxy-4-fluoro-benzoylamino)-nonyl]-piperidin-4-yl ester]
9.68	8.96	O=C(Nc1ccccc1-c1ccccc1)OC1CCN(CCCCCCCCCNCc2cc(F)c(O)c(F)c2)CC1 [Example 27, Biphenyl-2-yl-carbamic acid 1-[9-(3,5-difluoro-4-hydroxy-benzylamino)-nonyl]-piperidin-4-yl ester]
